{"source": "ChEMBL document CHEMBL5465560", "about": "“Selectivity Literature for EUbOPEN Chemogenomic Library” (2024)", "key": {"[1]": {"target": "Epithelial discoidin domain-containing receptor 1 (Homo sapiens) (UniProt Q08345)", "assay": "Selectivity interaction (KinomeScan (DiscoverX)) EUB0000666a DDR1", "conditions": "at 10 µM"}, "[2]": {"test_system": "Phosphatidylinositol 4,5-bisphosphate 3-kinase catalytic subunit alpha isoform (Homo sapiens), P42336 [H1047Y]", "assay": "(§1) Selectivity interaction (KinomeScan (DiscoverX)) EUB0000229b PIK3CA", "conditions": "at 1 µM"}, "[3]": {"test_system": "Phosphatidylinositol 4,5-bisphosphate 3-kinase catalytic subunit alpha isoform (Homo sapiens), P42336 [M1043I]", "sequence (P42336 whole entry M1043I, canonical isoform)": "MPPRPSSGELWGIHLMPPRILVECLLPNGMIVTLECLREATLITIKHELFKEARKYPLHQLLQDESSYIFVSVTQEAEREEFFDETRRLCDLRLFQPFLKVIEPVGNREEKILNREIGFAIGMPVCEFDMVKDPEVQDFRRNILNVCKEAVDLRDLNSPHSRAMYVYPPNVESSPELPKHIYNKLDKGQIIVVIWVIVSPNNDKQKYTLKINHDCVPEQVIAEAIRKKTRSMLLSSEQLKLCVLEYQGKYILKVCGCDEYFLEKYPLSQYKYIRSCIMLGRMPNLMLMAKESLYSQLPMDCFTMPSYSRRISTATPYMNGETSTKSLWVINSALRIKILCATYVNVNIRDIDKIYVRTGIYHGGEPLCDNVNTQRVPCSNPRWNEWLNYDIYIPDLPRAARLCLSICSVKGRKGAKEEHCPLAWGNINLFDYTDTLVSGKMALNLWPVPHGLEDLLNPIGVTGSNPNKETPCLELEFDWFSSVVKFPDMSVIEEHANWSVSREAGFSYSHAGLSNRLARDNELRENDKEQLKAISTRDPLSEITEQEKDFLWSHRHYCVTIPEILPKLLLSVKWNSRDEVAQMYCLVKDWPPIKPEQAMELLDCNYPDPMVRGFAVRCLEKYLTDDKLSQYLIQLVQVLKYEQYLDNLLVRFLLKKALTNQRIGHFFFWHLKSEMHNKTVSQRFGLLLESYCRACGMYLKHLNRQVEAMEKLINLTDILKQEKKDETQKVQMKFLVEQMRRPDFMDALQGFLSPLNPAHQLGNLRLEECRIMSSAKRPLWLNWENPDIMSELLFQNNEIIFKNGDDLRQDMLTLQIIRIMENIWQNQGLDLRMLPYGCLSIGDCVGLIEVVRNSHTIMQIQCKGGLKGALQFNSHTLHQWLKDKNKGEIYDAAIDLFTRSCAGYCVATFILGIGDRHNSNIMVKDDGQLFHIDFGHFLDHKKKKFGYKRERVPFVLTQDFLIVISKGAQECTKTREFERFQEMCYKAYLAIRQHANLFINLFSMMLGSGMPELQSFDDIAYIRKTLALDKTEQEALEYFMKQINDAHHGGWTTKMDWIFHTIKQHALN", "assay": "as §1", "conditions": "at 1 µM"}, "[4]": {"target": "Phosphatidylinositol 4,5-bisphosphate 3-kinase catalytic subunit alpha isoform (Homo sapiens) (UniProt P42336)", "assay": "as §1", "conditions": "at 10 µM"}, "[5]": {"test_system": "Phosphatidylinositol 4,5-bisphosphate 3-kinase catalytic subunit alpha isoform (Homo sapiens), P42336 [E545K]", "assay": "as §1", "conditions": "at 1 µM"}, "[6]": {"test_system": "Phosphatidylinositol 4,5-bisphosphate 3-kinase catalytic subunit alpha isoform (Homo sapiens), P42336 [E545A]", "assay": "as §1", "conditions": "at 1 µM"}, "[7]": {"test_system": "Phosphatidylinositol 4,5-bisphosphate 3-kinase catalytic subunit alpha isoform (Homo sapiens), P42336 [H1047L]", "assay": "as §1", "conditions": "at 1 µM"}, "[8]": {"test_system": "Phosphatidylinositol 4,5-bisphosphate 3-kinase catalytic subunit alpha isoform (Homo sapiens), P42336 [Q546K]", "assay": "as §1", "conditions": "at 1 µM"}, "[9]": {"test_system": "Phosphatidylinositol 4,5-bisphosphate 3-kinase catalytic subunit alpha isoform (Homo sapiens), P42336 [E542K]", "sequence (P42336 whole entry E542K, canonical isoform)": "as the sequence (P42336 whole entry M1043I, canonical isoform) above, with E542K, I1043M counted along it", "assay": "as §1", "conditions": "at 1 µM"}, "[10]": {"test_system": "Phosphatidylinositol 4,5-bisphosphate 3-kinase catalytic subunit alpha isoform (Homo sapiens), P42336 [I800L]", "assay": "as §1", "conditions": "at 1 µM"}, "[11]": {"test_system": "Phosphatidylinositol 4,5-bisphosphate 3-kinase catalytic subunit alpha isoform (Homo sapiens), P42336 [C420R]", "assay": "as §1", "conditions": "at 1 µM"}, "[12]": {"target": "Serine/threonine-protein kinase WNK1 (Homo sapiens) (UniProt Q9H4A3)", "sequence (Q9H4A3 whole entry, looked up)": "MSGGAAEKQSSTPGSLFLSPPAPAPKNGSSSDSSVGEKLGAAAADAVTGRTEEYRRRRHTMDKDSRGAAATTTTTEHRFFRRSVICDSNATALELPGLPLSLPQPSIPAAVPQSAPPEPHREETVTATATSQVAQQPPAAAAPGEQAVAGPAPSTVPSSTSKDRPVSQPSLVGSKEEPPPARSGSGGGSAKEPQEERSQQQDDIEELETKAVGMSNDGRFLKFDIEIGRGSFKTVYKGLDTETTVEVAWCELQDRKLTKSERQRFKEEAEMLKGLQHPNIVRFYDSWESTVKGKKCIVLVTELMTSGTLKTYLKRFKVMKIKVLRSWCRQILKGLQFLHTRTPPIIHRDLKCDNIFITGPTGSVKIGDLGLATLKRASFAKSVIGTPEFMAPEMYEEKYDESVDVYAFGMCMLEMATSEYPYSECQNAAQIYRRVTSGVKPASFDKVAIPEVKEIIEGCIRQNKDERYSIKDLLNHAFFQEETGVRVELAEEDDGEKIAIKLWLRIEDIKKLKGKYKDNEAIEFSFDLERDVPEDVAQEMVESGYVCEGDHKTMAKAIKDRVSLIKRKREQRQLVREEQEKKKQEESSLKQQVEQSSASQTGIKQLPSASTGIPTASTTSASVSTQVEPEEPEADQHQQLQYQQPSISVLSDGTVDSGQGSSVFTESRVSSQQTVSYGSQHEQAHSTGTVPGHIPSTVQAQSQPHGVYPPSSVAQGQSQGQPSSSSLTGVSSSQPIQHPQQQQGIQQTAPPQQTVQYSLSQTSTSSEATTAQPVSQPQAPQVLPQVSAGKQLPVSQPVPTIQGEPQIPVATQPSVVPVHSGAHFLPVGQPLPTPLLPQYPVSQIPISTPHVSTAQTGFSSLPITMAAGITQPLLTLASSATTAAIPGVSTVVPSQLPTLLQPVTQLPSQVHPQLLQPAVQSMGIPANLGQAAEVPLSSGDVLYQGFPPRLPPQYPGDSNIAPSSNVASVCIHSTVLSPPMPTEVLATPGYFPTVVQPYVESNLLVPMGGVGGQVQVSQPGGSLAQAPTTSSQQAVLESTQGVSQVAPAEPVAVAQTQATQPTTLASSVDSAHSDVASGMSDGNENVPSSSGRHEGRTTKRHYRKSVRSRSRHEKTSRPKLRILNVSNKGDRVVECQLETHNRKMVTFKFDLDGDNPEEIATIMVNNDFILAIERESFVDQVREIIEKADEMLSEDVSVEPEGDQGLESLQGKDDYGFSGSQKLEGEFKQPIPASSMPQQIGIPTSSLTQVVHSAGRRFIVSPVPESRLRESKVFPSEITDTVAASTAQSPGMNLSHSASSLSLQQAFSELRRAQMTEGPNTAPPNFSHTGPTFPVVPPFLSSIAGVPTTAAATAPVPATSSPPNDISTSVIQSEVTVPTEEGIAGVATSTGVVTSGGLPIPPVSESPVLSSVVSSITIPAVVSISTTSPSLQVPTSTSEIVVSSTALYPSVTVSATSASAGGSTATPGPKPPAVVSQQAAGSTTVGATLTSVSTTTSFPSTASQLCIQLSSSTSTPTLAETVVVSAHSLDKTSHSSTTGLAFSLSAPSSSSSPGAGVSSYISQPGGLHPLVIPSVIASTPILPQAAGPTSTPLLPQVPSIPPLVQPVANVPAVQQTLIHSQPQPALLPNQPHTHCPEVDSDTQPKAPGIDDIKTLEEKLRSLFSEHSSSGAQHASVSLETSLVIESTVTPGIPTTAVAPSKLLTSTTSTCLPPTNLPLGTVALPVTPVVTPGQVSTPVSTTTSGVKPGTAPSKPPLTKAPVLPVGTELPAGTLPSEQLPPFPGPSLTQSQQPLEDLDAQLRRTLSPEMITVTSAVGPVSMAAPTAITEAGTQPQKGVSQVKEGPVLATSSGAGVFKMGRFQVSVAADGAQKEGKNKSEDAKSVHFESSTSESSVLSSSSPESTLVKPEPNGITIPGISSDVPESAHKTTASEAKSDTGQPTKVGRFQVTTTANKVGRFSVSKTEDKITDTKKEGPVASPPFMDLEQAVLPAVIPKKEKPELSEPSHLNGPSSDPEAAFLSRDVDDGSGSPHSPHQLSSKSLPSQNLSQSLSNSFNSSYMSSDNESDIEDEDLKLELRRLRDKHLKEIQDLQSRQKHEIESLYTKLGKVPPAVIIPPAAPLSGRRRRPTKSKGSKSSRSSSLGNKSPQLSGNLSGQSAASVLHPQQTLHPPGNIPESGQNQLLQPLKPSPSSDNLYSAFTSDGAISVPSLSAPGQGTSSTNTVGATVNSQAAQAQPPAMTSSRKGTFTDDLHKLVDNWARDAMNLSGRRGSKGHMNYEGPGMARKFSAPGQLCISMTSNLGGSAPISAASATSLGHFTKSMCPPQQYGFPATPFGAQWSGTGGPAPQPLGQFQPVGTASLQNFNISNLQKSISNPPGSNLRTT", "assay": "Selectivity interaction (KinomeScan (DiscoverX)) EUB0001079a WNK1", "conditions": "at 1 µM"}, "[13]": {"target": "T1, Dual specificity mitogen-activated protein kinase kinase 6 (Homo sapiens) (UniProt P52564)", "T1 sequence (whole entry)": "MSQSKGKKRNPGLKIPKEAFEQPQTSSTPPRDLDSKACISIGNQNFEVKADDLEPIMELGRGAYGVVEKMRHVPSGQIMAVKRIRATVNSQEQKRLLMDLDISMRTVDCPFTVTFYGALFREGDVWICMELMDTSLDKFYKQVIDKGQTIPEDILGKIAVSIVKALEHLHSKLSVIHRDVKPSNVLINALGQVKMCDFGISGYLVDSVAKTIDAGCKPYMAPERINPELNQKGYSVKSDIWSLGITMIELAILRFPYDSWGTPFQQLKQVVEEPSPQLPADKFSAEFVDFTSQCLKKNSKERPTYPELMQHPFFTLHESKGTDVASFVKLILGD", "assay": "Selectivity interaction (Kinase panel (KiNativ target engagement assay in Jurkat cells)) EUB0001635a MAP2K6", "format": "cell-based", "conditions": "Selectivity number of off-targets 0.0, Selectivity number of targets 233.0, Source Knowledge https://www.sciencedirect.com/science/article/pii/S2451945619300674?via%3Dihub, at 1 µM"}, "[14]": {"target": "eIF-2-alpha kinase GCN2 (Homo sapiens) (UniProt Q9P2K8)", "assay": "Selectivity interaction (ActivX KiNativ screen (kinase selectivity in THP-1 cell lysates)) EUB0000639a EIF2AK4", "format": "subcellular", "conditions": "lysate, at 0.04 µM"}, "[15]": {"target": "T2, Discoidin domain-containing receptor 2 (Homo sapiens) (UniProt Q16832)", "T2 sequence (whole entry)": "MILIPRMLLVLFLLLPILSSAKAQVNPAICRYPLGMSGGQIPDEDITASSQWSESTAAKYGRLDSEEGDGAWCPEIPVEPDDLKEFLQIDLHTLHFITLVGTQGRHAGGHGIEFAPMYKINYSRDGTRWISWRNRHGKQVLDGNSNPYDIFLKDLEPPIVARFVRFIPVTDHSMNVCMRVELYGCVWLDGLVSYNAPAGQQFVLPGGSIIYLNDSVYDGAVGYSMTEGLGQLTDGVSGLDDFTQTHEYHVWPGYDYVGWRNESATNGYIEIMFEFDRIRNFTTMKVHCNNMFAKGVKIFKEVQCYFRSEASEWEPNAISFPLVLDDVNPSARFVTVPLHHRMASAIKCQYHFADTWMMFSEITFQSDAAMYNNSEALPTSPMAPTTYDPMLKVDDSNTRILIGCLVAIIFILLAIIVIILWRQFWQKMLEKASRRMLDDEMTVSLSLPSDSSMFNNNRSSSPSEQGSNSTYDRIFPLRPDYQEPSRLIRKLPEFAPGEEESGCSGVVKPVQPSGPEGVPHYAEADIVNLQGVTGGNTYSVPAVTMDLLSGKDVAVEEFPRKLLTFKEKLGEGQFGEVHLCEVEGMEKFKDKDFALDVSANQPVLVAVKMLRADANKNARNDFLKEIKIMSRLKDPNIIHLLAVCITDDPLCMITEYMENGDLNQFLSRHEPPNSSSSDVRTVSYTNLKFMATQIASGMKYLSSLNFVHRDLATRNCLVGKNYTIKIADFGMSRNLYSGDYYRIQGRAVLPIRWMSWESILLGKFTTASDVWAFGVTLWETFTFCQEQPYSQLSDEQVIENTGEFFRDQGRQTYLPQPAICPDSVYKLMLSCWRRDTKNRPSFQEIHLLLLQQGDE", "conditions": "at 10 µM"}, "[16]": {"target": "Homeodomain-interacting protein kinase 1 (Homo sapiens, UniProt Q86Z02)", "assay": "Selectivity interaction (Ambit KINOMEscan and KiNATiv profiling in Jurkat cells) EUB0000090b HIPK1", "format": "cell-based", "conditions": "at 1 µM"}, "[17]": {"target": "T2, Discoidin domain-containing receptor 2 (Homo sapiens)", "assay": "Selectivity interaction (KinomeScan (DiscoverX)) EUB0000045b DDR2"}, "[18]": {"target": "T3, Serine/threonine-protein kinase 3 (Homo sapiens) (UniProt Q13188)", "T3 sequence (whole entry)": "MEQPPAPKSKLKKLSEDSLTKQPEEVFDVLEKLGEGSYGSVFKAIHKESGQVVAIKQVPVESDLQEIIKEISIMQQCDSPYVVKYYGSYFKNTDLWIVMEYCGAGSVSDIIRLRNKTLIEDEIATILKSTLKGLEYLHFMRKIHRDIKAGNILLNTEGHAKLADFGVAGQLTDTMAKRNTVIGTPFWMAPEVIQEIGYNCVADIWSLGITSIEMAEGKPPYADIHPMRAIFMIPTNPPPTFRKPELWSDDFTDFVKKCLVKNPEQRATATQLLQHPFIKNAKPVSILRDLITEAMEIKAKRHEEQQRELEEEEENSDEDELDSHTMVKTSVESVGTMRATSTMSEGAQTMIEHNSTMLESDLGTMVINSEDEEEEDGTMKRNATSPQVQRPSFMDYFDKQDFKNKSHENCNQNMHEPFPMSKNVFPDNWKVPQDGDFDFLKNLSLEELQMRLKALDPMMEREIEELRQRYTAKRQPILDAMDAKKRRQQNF", "assay": "Selectivity interaction (ActivX KiNativ screen (ex vivo kinase selectivity in human PBMCs)) EUB0001619a STK3", "format": "cell-based", "conditions": "PBMC, at 1 µM"}, "[19]": {"target": "Mast/stem cell growth factor receptor Kit (Homo sapiens, UniProt P10721)", "assay": "Selectivity interaction (KinomeScan (DiscoverX)) EUB0000607a KIT", "conditions": "at 10 µM"}}}
{"molecule": "O=C(NOC[C@H](O)CO)c1ccc(F)c(F)c1Nc1ccc(I)cc1F", "values": [{"measurement": "% of control", "setting": "[1]", "result": 50, "unit": "%"}]}
{"molecule": "COc1cc(N(C)c2ccnc3ccc(C(F)(F)F)cc23)cc(OC)c1OC", "values": [{"measurement": "% binding", "setting": "[2]", "result": 90, "unit": "%"}, {"measurement": "% binding", "setting": "[3]", "result": 87, "unit": "%"}, {"measurement": "% binding", "setting": "[4]", "result": 100, "unit": "%"}, {"measurement": "% binding", "setting": "[5]", "result": 76, "unit": "%"}, {"measurement": "% binding", "setting": "[6]", "result": 67, "unit": "%"}, {"measurement": "% binding", "setting": "[7]", "result": 63, "unit": "%"}, {"measurement": "% binding", "setting": "[8]", "result": 81, "unit": "%"}, {"measurement": "% binding", "setting": "[9]", "result": 90, "unit": "%"}, {"measurement": "% binding", "setting": "[10]", "result": 72, "unit": "%"}, {"measurement": "% binding", "setting": "[11]", "result": 87, "unit": "%"}]}
{"molecule": "Nc1cnc(N2CCc3cc(S(=O)(=O)Nc4c(F)cc(Cl)cc4F)cc(N4CCCC4=O)c32)nc1", "note": "[TP-020n]", "values": [{"measurement": "% of control", "setting": "[12]", "result": 100, "unit": "%"}]}
{"molecule": "C=CC(=O)Nc1ccc(C(=O)Nc2[nH]nc3c2CN(C(=O)N[C@H](CN(C)C)c2ccccc2)C3(C)C)cc1", "values": [{"measurement": "% of engagement", "setting": "[13]", "result": 2.8, "unit": "%"}]}
{"molecule": "CC[C@@H]1[C@H](F)C(=O)N[C@@H]1COc1nccc2cc(C(N)=O)c(OC)cc12", "note": "[ZIMLOVISERTIB]", "values": [{"measurement": "% of inhibition", "setting": "[14]", "result": 0.9, "unit": "%"}]}
{"molecule": "COCC(=O)NC/C=C/c1ccc2ncnc(Nc3ccc(Oc4ccc(C)nc4)c(C)c3)c2c1", "note": "[CP-724714]", "values": [{"measurement": "% of control", "setting": "[15]", "result": 100, "unit": "%"}]}
{"molecule": "CN(C)C/C=C/C(=O)Nc1ccc(C(=O)N2CCCC(Nc3ncc(Cl)c(-c4c[nH]c5ccccc45)n3)C2)cc1", "note": "(stereo not given)", "values": [{"measurement": "% of control", "setting": "[16]", "result": 80, "unit": "%"}]}
{"molecule": "C=CC(=O)Nc1cc(-n2c(=O)ccc3cnc4ccc(-c5ccc(NS(C)(=O)=O)cc5)cc4c32)ccc1C", "values": [{"measurement": "% of control", "setting": "[17]; at 1 µM", "result": 100, "unit": "%"}, {"measurement": "% of control", "setting": "[17]; at 10 µM", "result": 100, "unit": "%"}]}
{"molecule": "N#Cc1cccc(-c2c[nH]c3ncnc(N4CCOCC4)c23)c1", "values": [{"measurement": "% of inhibition", "setting": "[18]", "result": 71, "unit": "%"}]}
{"molecule": "CNC(=O)Nc1ccc(-c2nc(N3CC4CCC(C3)O4)c3cnn(C4CCC5(CC4)OCCO5)c3n2)cc1", "values": [{"measurement": "% of control", "setting": "[19]", "result": 93, "unit": "%"}]}
